Laboratory results reported in PubChem BioAssay AID1259411 (Chemical Carcinogenesis Research Information System (CCRIS), 2018).
Calls of active or inactive are those of the source. No rule for the calls is given here.

System: rodent carcinogenicity bioassays, tumor incidence
Assay: CCRIS carcinogenicity studies
Outline: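 Archive of carcinogenicity, mutagenicity, tumor promotion and tumor inhibition results drawn from journals, NCI reports and other sources, expert-reviewed; covers 1985-2011 and is no longer updated.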

Measured: carcinogen call

CC(COc1ccccc1)N(CCCl)Cc1ccccc1 (configuration not stated)
active: Species: MOUSE, Strain/Sex: B6C3F1/FEMALE, Route: INTRAPERITONEAL, Dose: 0, 12.5, 25 MG/KG 3/WK FOR 50 OR 52 WK, Dose: 0, 12.5, 25 MG/KG 3/WK FOR 50 OR 52 WK, Tumor Site: Type of Lesion: PERITONEAL CAVITY: SARCOMA active; positive | Species: MOUSE, Strain/Sex: B6C3F1/MALE, Route: INTRAPERITONEAL, Dose: 0, 12.5, 25 MG/KG 3/WK FOR 50 OR 52 WK, Dose: 0, 12.5, 25 MG/KG 3/WK FOR 50 OR 52 WK, Tumor Site: Type of Lesion: PERITONEAL CAVITY: SARCOMA active; positive | Species: MOUSE, Strain/Sex: STRAIN-A/MALE,FEMALE, Route: INTRAPERITONEAL, Dose: 40, 100, 200 MG/KG IN TRICAPRYLIN, Dose: 40, 100, 200 MG/KG IN TRICAPRYLIN, Tumor Site: Type of Lesion: LUNG: ADENOMA active; positive | Species: RAT, Strain/Sex: SPRAGUE-DAWLEY/FEMALE, Route: INTRAPERITONEAL, Dose: 0, 5, 10 MG/KG 3/WK FOR 52 WKS, Dose: 0, 5, 10 MG/KG 3/WK FOR 52 WKS, Tumor Site: Type of Lesion: PERITONEAL CAVITY: SARCOMA active; positive | Species: RAT, Strain/Sex: SPRAGUE-DAWLEY/MALE, Route: INTRAPERITONEAL, Dose: 0, 5, 10 MG/KG 3/WK FOR 52 WK, Dose: 0, 5, 10 MG/KG 3/WK FOR 52 WK, Tumor Site: Type of Lesion: PERITONEAL CAVITY: SARCOMA active; positive

CC(=O)Nc1ccc(-c2ccc(N(O)C(C)=O)cc2)cc1
active: Species: RAT, Strain/Sex: STRAIN-CD/FEMALE, Route: INTRAPERITONEAL, Dose: 0, 10, 30 UMOL/KG IN TRIOCTANOIN 2/WK FOR 4 WK (TOTAL DOSES: 13.2, 40.0 UMOL) (STUDY DURATION: 46 WK), Dose: 0, 10, 30 UMOL/KG IN TRIOCTANOIN 2/WK FOR 4 WK (TOTAL DOSES: 13.2, 40.0 UMOL) (STUDY DURATION: 46 WK), Tumor Site: Type of Lesion: MAMMARY GLAND: FIBROADENOMA, ADENOCARCINOMA, EAR (ZYMBAL GLAND): ADENOMA OR CARCINOMA active; positive

[O]=[Cr](=[O])([OH])[O][Cr](=[O])(=[O])[OH]
active: Species: Mouse, Strain/Sex: B6C3F1/Female, Route: Oral, Dose: 0, 14.3, 57.3, 172, 516 mg/l of water, in drinking water for 2 yr (average daily dose of 0, 1.1, 3.9, 9, and 25 mg/kg), Tumor Site: Type of Lesion: Small intestine (duodenum, jejunum, ileum): Adenomas and carcinomas active; positive, authors describe as clear evidence of carcinogenic activity | Species: Mouse, Strain/Sex: B6C3F1/Male, Route: Oral, Dose: 0, 14.3, 28.6, 85.7, 257.4 mg/l of water, in drinking water for 2 yr (average daily dose of 0, 1.1, 2.6, 7, and 17 mg/kg, Tumor Site: Type of Lesion: Small intestine (duodenum, jejunum, ileum): Adenomas and carcinomas active; positive, authors describe as clear evidence of carcinogenic activity | Species: Rat, Strain/Sex: F344/N/Female, Route: Oral, Dose: 0, 14.3, 57.3, 172, 516 mg/l of water, in drinking water for 2 yr (average daily dose of 0, 0.7, 2.7, 7, and 20 mg/kg), Tumor Site: Type of Lesion: Mouth and tongue: Squamous cell papilloma and carcinoma active; positive, authors describe as clear evidence of carcinogenic activity | Species: Rat, Strain/Sex: F344/N/Male, Route: Oral, Dose: 0, 14.3, 57.3, 172, 516 mg/l of water, in drinking water for 2 yr (average daily dose of 0, 0.6, 2.2, 6, and 17 mg/kg), Tumor Site: Type of Lesion: Mouth and tongue: Squamous cell papilloma and carcinoma active; positive, authors describe as clear evidence of carcinogenic activity

CC(O)CN(CC(C)O)N=O (configuration not stated)
active: Species: HAMSTER, Strain/Sex: SYRIAN/MALE,FEMALE, Route: SUBCUTANEOUS, Dose: 40 MG/KG IN SALINE ONCE, Tumor Site: Type of Lesion: PANCREAS: ADENOMA, ADENOCARCINOMA, INTRADUCTAL CARCINOMA active; positive | Species: HAMSTER, Strain/Sex: SYRIAN/MALE, Route: SUBCUTANEOUS, Dose: 25, 125, 250 MG/KG 1/WK FOR LIFE, Dose: 25, 125, 250 MG/KG 1/WK FOR LIFE, Tumor Site: Type of Lesion: PANCREAS, NASAL CAVITY, LUNG, LIVER, TRACHEA, LARYNX, Tumor Site: Type of Lesion: PANCREAS, NASAL CAVITY, LUNG, LIVER, TRACHEA, LARYNX active; positive | Species: HAMSTER, Strain/Sex: SYRIAN/MALE, Route: SUBCUTANEOUS, Dose: 250, 500, 1000 MG/KG IN OLIVE OIL 1/WK FOR 20 WK, Dose: 250, 500, 1000 MG/KG IN OLIVE OIL 1/WK FOR 20 WK, Tumor Site: Type of Lesion: PANCREAS: ADENOCARCINOMA active; positive | Species: HAMSTER, Strain/Sex: SYRIAN/MALE, Route: SUBCUTANEOUS, Dose: 250 MG/KG IN OLIVE OIL 1/WK FOR 25 WK, Tumor Site: Type of Lesion: PANCREAS: ADENOCARCINOMA active; positive | Species: MOUSE, Strain/Sex: ICR/FEMALE, Route: SUBCUTANEOUS, Dose: 0, 25, 50, 100 MG/KG BW ONCE ON DAYS 1 AND 8 OF AGE (STUDY DURATION: 50 WK), Dose: 0, 25, 50, 100 MG/KG BW ONCE ON DAYS 1 AND 8 OF AGE (STUDY DURATION: 50 WK), Tumor Site: Type of Lesion: LUNG: TUMOR, LIVER: TUMOR active; positive | Species: MOUSE, Strain/Sex: ICR/MALE, Route: SUBCUTANEOUS, Dose: 0, 25, 50, 100 MG/KG BW ONCE ON DAYS 1 AND 8 OF AGE (STUDY DURATION: 50 WK), Dose: 0, 25, 50, 100 MG/KG BW ONCE ON DAYS 1 AND 8 OF AGE (STUDY DURATION: 50 WK), Tumor Site: Type of Lesion: LUNG: TUMOR, LIVER: TUMOR active; positive | Species: MOUSE, Strain/Sex: STRAIN-DD/MALE, Route: ORAL, Dose: 100, 250, 500, 1000 PPM IN DRINKING WATER (DAILY INTAKE: 6.3-34.2 MG), Dose: 100, 250, 500, 1000 PPM IN DRINKING WATER (DAILY INTAKE: 6.3-34.2 MG), Tumor Site: Type of Lesion: LUNG: ADENOMA, ADENOCARCINOMA, LIVER: HEMANGIOMA, HEMANGIOENDOTHELIOMA, HEMANGIOENDOTHELIAL SARCOMA active; positive | Species: RAT, Strain/Sex: SPRAGUE-DAWLEY/FEMALE, Route: ORAL, Dose: 106 MG/L IN DRINKING WATER 5 DAY/WK FOR 30 WK (TOTAL DOSE: 318 MG), Tumor Site: Type of Lesion: LIVER: HEPATOCELLULAR CARCINOMA, CHOLANGIOCARCINOMA, HEMANGIOENDOTHELIAL SARCOMA active; positive | Species: RAT, Strain/Sex: SPRAGUE-DAWLEY/FEMALE, Route: ORAL, Dose: 108 MG/L IN DRINKING WATER 5 DAY/WK FOR 50 WK (TOTAL DOSE 540 MG), Tumor Site: Type of Lesion: NASAL TURBINATES: ADENOCARCINOMA, SQUAMOUS CELL CARCINOMA active; positive | Species: RAT, Strain/Sex: WISTAR/MALE, Route: INTRAPERITONEAL, Dose: 3, 4 G/KG ONCE, Tumor Site: Type of Lesion: LUNG: ADENOMA, ADENOCARCINOMA active; positive | Species: RAT, Strain/Sex: WISTAR/MALE, Route: ORAL, Dose: 100, 500 PPM IN DRINKING WATER FOR 25 WK, Tumor Site: Type of Lesion: LUNG: ADENOMA, ADENOCARCINOMA, SQUAMOUS CELL CARCINOMA active; positive | Species: RAT, Strain/Sex: WISTAR/MALE, Route: ORAL, Dose: 100, 500 PPM IN DRINKING WATER FOR 52 WK, Tumor Site: Type of Lesion: LUNG: ADENOMA, ADENOCARCINOMA, SQUAMOUS CELL CARCINOMA, LIVER: HEMANGIOMA, HEPATOCELLULAR CARCINOMA active; positive
